Experimental data: PubChem BioAssay (NCI)
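At the GI50, growth is halved. TGI: total growth inhibition.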

Experiments:
Assay in all cases: DTP human tumour cell line panel, 384-well format
[1] = system: MOLT-4 leukemia
[2] = system: KM12 colon
[3] = system: SW-620 colon
[4] = system: MALME-3M melanoma
[5] = system: RPMI-8226 leukemia
[6] = system: OVCAR-4 ovarian
[7] = system: UACC-62 melanoma
[8] = system: NCI-H23 lung
[9] = system: RXF 393 renal
[10] = system: UO-31 renal
[11] = system: SNB-75 CNS
[12] = system: MCF7 breast
[13] = system: SK-OV-3 ovarian
[14] = system: A549 NSCLC
[15] = system: NCI/ADR-RES ovarian
[16] = system: SK-MEL-28 melanoma
[17] = system: SF-268 CNS
[18] = system: SF-295 CNS
[19] = system: MDA-MB-231 breast
[20] = system: UACC-257 melanoma
[21] = system: NCI-H322M lung
[22] = system: A498 renal
[23] = system: OVCAR-5 ovarian
[24] = system: NCI-H522 lung
[25] = system: SK-MEL-5 melanoma
[26] = system: MDA-MB-468 breast
[27] = system: HCT-15 colon
[28] = system: SN12C renal
[29] = system: HT29 colon
[30] = system: IGROV1 ovarian

COc1cc(-c2ncn(/C=C\C(=O)OC(C)C)n2)cc(C(F)(F)F)c1
GI50 [1]: 12.6 nM
TGI [1]: 25.9 nM
GI50 [2]: 217 nM
TGI [2]: 1150 nM
GI50 [3]: 56.1 nM
TGI [3]: 1250 nM
GI50 [4]: 171 nM
TGI [4]: 609 nM
GI50 [5]: 13.6 nM
TGI [5]: 32.5 nM
GI50 [6]: 244 nM
TGI [6]: 2040 nM
GI50 [7]: 42.4 nM
TGI [7]: 179 nM
GI50 [8]: 56.4 nM
TGI [8]: 1140 nM
GI50 [9]: 16.6 nM
TGI [9]: 68.7 nM
GI50 [10]: 166 nM
TGI [10]: 1580 nM
GI50 [11]: 91.9 nM
TGI [11]: 311 nM
GI50 [12]: 65.9 nM
TGI [12]: 982 nM
GI50 [13]: 2340 nM
TGI [13]: 14300 nM
GI50 [14]: 87.4 nM
TGI [14]: 1360 nM
GI50 [15]: 54.9 nM
TGI [15]: 1270 nM
GI50 [16]: 222 nM
TGI [16]: 1610 nM
GI50 [17]: 29.9 nM
TGI [17]: 88.8 nM
GI50 [18]: 214 nM
TGI [18]: 2300 nM
GI50 [19]: 51.4 nM
TGI [19]: 663 nM
GI50 [20]: 552 nM
TGI [20]: 4600 nM
GI50 [21]: 295 nM
TGI [21]: 2530 nM
GI50 [22]: 114 nM
TGI [22]: 1250 nM
GI50 [23]: 117 nM
TGI [23]: 10000 nM
TGI [24]: 92.6 nM
GI50 [25]: 137 nM
TGI [25]: 601 nM
GI50 [26]: 150 nM
TGI [26]: 336 nM
GI50 [27]: 45.8 nM
TGI [27]: 1040 nM
GI50 [28]: 283 nM
TGI [28]: 1770 nM
GI50 [29]: 74.3 nM
TGI [29]: 1120 nM
GI50 [30]: 92.8 nM
